One experiment has as its system alpha-helical S-protein. Kind of experiment: Intracranial self-stimulation (bar pressing) in rats given alpha-helical S-protein. It is filed as in vivo. The following applies: for Bar Presses Restoration %: alpha-helical S-protein intercisternally, polypeptide 0.2 mg/kg intramuscularly.
A further experiment has as its system tryptophan uptake. Kind of experiment: Tryptophan uptake inhibition (tryptophan uptake method).
The nature of experiment [1]: Activity useful for alleviating the symptoms of schizophrenia (test not specified). Here is the method:
Following essentially the same procedures as described above, N-acetyl-tyrosylthreonylvalylleucine, prolylthreonylvalylleucylprolylglycine are tested to determine their effect on rats which have been administered the alpha-helical S-protein.

For experiment [2], the system named is S-protein of schizophrenics. The experiment is described as follows: Conversion of alpha-helical S-protein to random chain conformation. The format is biochemical, human.

Non-standard residues stand in square brackets, D forms with d. Residues, ends and D or L forms follow the SMILES beside them. *: point of attachment. Bn = c1ccc(C*)cc1

Description for tryptophan uptake: Each of the resultant 10 fractions is assayed according to the tryptophan uptake method described in Biological Psychiatry, Vol. 7, No. 1, p. 53, (1973) as an indication of the amount of anti-S protein factor therein.
Tryptophan uptake are also conducted for the tested polypeptides. The tryptophan uptake inhibition is determined at 10 minutes.

As to `CC(C)C[C@H](NC(=O)[C@@H](NC(=O)[C@@H](N)[C@@H](C)O)C(C)C)C(N)=O` [Threonylvalylleucinamide] (H-Thr-Val-Leu-NH2), in the experiment with alpha-helical S-protein (rats), the “Bar Presses Restoration %” value is reported as 90%. Further, the “Tryptophan Uptake Inhibition %” value with tryptophan uptake (determined at 10 minutes) was 21.6%.
With `CC(C)C[C@H](NC(=O)[C@@H](NC(=O)[C@@H](NC(=O)[C@@H](C)N)[C@@H](C)O)C(C)C)C(=O)O` [D-Alanyl-L-threonyl-L-valyl-L-leucine] (H-[dA]TVL-OH), the “duration of tryptophan uptake inhibition (in words)” value in the experiment on tryptophan uptake (10, 15 and 30 minutes) is recorded as “after a period of time the inhibition of tryptophan uptake may be diminished”. Further, the entries for the “Tryptophan Uptake Inhibition %” value in the experiment with tryptophan uptake (15 min.), in the experiment with tryptophan uptake (30 min.) and with tryptophan uptake (determined at 10 minutes) were 16%, 0% and 15%, respectively.
Regarding `CC(C)C[C@H](NC(=O)[C@@H](NC(=O)[C@@H](N)[C@@H](C)OCc1ccccc1)C(C)C)C(N)=O` [O-Benzyl-threonylvalylleucinamide] (H-Thr(Bn)-Val-Leu-NH2), the “Bar Presses Restoration %” value in the experiment on alpha-helical S-protein (rats) was “toxic”. In addition, in the experiment on tryptophan uptake (determined at 10 minutes), the “Tryptophan Uptake Inhibition %” value amounted to 0%.
`CC(C)C[C@H](NC(=O)[C@@H](NC(=O)[C@@H](N)[C@@H](C)O)C(C)C)C(=O)N[C@@H](CCCNC(=N)N)C(=O)O` [threonylvalylleucylarginine] (H-TVLR-OH): in experiment [1], the “activity useful for alleviating the symptoms of schizophrenia (in words)” value is given as “exhibiting activity useful for alleviating the symptoms of schizophrenia”.
For the compound `CC(C)C[C@H](NC(=O)[C@@H](NC(=O)[C@@H](NC(=O)CN)[C@@H](C)O)C(C)C)C(=O)O` [Glycylthreonylvalylleucine] (H-GTVL-OH), the “Bar Presses Restoration %” value in the experiment on alpha-helical S-protein (rats) was 100%. Further, in the experiment on tryptophan uptake (determined at 10 minutes), the “Tryptophan Uptake Inhibition %” value was 24.3%.
For `CC(=O)N[C@H](C(=O)N[C@H](C(=O)N[C@@H](CC(C)C)C(=O)O)C(C)C)[C@@H](C)O` [N-Acetyl-threonylvalylleucine] (Ac-Thr-Val-Leu-OH) the same measures were 100% and 20.2%.
For the compound `CC(C)C[C@H](NC(=O)[C@@H](NC(=O)[C@@H](N)[C@@H](C)O)C(C)C)C(=O)N[C@H](C)C(=O)O` [L-Threonyl-L-valyl-L-leucyl-D-alanine] (H-TVL[dA]-OH), the “tryptophan uptake activity (in words)” value in the experiment with tryptophan uptake was “without significant tryptophan uptake activity”. The “Tryptophan Uptake Inhibition %” value in the experiment on tryptophan uptake (determined at 10 minutes) stood at 2%.
On to `NCC(=O)NCC(=O)NCC(=O)O` [Glycylglycylglycine, reference compound] (H-Gly-Gly-Gly-OH), for which the “Bar Presses Restoration %” value with alpha-helical S-protein (rats) is recorded as 3%. Moreover, the “Tryptophan Uptake Inhibition %” value in the experiment with tryptophan uptake (determined at 10 minutes) is recorded as 0%.
For `CC(=O)N[C@H](C(=O)N[C@H](C(=O)N[C@@H](CC(C)C)C(N)=O)C(C)C)[C@@H](C)O` [N-Acetyl-threonylvalylleucinamide] (Ac-Thr-Val-Leu-NH2), the “Bar Presses Restoration %” value with alpha-helical S-protein (rats) turned out to be 100%. In addition, the “Tryptophan Uptake Inhibition %” value in the experiment with tryptophan uptake (determined at 10 minutes) is given as 56.5%.
For `CC[C@H](C)[C@H](NC(=O)[C@@H](NC(=O)[C@@H](N)[C@@H](C)O)C(C)C)C(=O)O` [Threonylvalylisoleucine] (H-Thr-Val-Ile-OH), in that order: 41% and 5.6%.
On to “N-α-Acetyl-Threonylvalyleucine, methyl ester”, for which the “Tryptophan Uptake Inhibition %” value with tryptophan uptake (determined at 10 minutes) was 24.2%.
In the case of `CC(C)C[C@@H](NC(=O)[C@@H](NC(=O)[C@@H](N)[C@@H](C)O)C(C)C)C(=O)O` [L-Threonyl-L-valyl-D-leucine] (H-Thr-Val-[dL]-OH), the “Tryptophan Uptake Inhibition %” value came to 18% in the experiment with tryptophan uptake (15 min.), 21% in the experiment with tryptophan uptake (30 min.) and 12% in the experiment with tryptophan uptake (determined at 10 minutes).
In the case of `CC(C)C[C@H](NC(=O)[C@@H](NC(=O)[C@@H](NC(=O)[C@@H]1CCCN1C(=O)[C@@H](N)Cc1ccccc1)[C@@H](C)O)C(C)C)C(=O)N1CCC[C@H]1C(=O)N[C@@H](Cc1ccccc1)C(=O)O` [Phenylalanylprolylthreonylvallylleucylprolyl phenylalanine] (H-FPTVLPF-OH), in the experiment on alpha-helical S-protein (rats), the “Bar Presses Restoration %” value is on record as 100%. Also, in the experiment with tryptophan uptake (determined at 10 minutes), the “Tryptophan Uptake Inhibition %” value was 39.5%.
With `CC(C)C[C@H](NC(=O)[C@@H](NC(=O)[C@@H](NC(=O)[C@@H]1CCCN1)[C@@H](C)O)C(C)C)C(=O)N1CCC[C@H]1C(=O)NCC(=O)O` [Prolylthreonylvalylleucylprolylgylcine] (H-PTVLPG-OH), the “restoration of the bar pressing activity of the rats (in words)” value with alpha-helical S-protein (rats administered the alpha-helical S-protein) is “restores the bar pressing activity of the rats”. In addition, the “Tryptophan Uptake Inhibition %” value with tryptophan uptake (determined at 10 minutes) is reported as 44.2%.
Take `CC(C)C[C@H](NC(=O)[C@@H](NC(=O)[C@@H](N)[C@@H](C)O)C(C)C)C(=O)O` [Threonylvalylleucine] (H-Thr-Val-Leu-OH): in the experiment on alpha-helical S-protein (rats), the “period of effectiveness in counteracting the effect of the S-protein” value was “of short duration” and the “Bar Presses Restoration %” value came to 85%. For the same compound, the “Tryptophan Uptake Inhibition %” value with tryptophan uptake (determined at 10 minutes) came to 19.8%. For the same compound, the “activity against the S-protein of schizophrenics (conformation change, in words)” value in experiment [2] is recorded as “the alpha-helical conformation of the S-protein is converted to the random form”.
